This assay deals with Skin fibroblasts derived from FA patients (GM4078). Kind of assay: RSL3-induced cell death inhibitory activity in skin fibroblasts derived from FA patients (ATP, CellTiter-Glo). The assay is classed as cell-based, human. The conditions noted are these: 3 μmol/l RSL3, 24 hours. How it is done:
The effects of the compounds according to the present disclosure were evaluated according to the literature (M. G. Cotticelli et al, J Pharmacol Exp Ther 2019, 369, 47-54.).
Skin fibroblasts derived from FA patients (Coriell Institute for Medical Research, GM4078) were cultured in a culture medium consisting of DMEM (Thermo Fisher Scientific, 11995-065), 10% fetal bovine serum (Thermo Fisher Scientific, 26140-087), 1% GlutaMAX supplement (Thermo Fisher Scientific, 35050-061) and 1% Penicillin-Streptomycin solution (FUJIFILM Wako Pure Chemical Corporation, 168-23191).
For assay, the fibroblasts in the above culture medium were seeded in a 384-well plate at 1,500 cells per well, and the test compound and 3 μmol/l (final concentration) RSL3 were added to the plate the day after seeding. The concentration of the test compound added to the assay plate was 0.01, 0.1, 1 and 10 μmol/l as 4 points, and DMSO was added as a negative control for the test compound and RSL3. Twenty-four hours after the addition of RSL3/the test compound, CellTiter-Glo Luminescent Cell Viability Assay solution (Promega, G7573) was added to the plate to lyse the cells, and ATP was measured as an index of cell viability by detecting chemiluminescence with a plate reader.
RSL3-induced cell death inhibitory activity of the test compound=((X−C)/(T−C))×100 • X: ATP in the RSL3 addition/the test compound addition group, • C: ATP in the RSL3 addition/the test compound non-addition group, • T: ATP in the RSL3 non-addition/the test compound non-addition group
A general note: Cellular ATP, detected with luciferase, serves as a proxy for viable cell number.

Consider `COc1c(Nc2nn(C)c3cc(C(C)(C)O)cc(F)c23)cnn1CC(C)C` [Example 44, 2-(4-fluoro-3-{[5-methoxy-1-(2-methylpropyl)-1H-pyrazol-4-yl]amino}-1-methyl-1H-indazol-6-yl)propan-2-ol], for which the “RSL3-induced cell death inhibitory activity (%) at each compound concentration (μmol/l)” value by setting is: (compound 0.01 μmol/l) 38.3%; (compound 0.1 μmol/l) 61.3%; (compound 1 μmol/l) 78.4%; (compound 10 μmol/l) 95.0%.

For the compound `Cn1nc(NC2CCCCC2)c2cc(C(C)(C)O)ccc21` [Example 59, 2-[3-(cyclohexylamino)-1-methyl-1H-indazol-5-yl]propan-2-ol], the “RSL3-induced cell death inhibitory activity (%) at each compound concentration (μmol/l)” value reads like this: (compound 0.01 μmol/l) 48.0%; (compound 0.1 μmol/l) 65.9%; (compound 1 μmol/l) 93.3%; (compound 10 μmol/l) 95.9%.

For the compound `COc1nn(C)cc1Nc1nn(C2CCC2)c2cc(C(C)(C)O)ccc12` [Example 68, 2-{1-cyclobutyl-3-[(3-methoxy-1-methyl-1H-pyrazol-4-yl)amino]-1H-indazol-6-yl}propan-2-ol], the “RSL3-induced cell death inhibitory activity (%) at each compound concentration (μmol/l)” value is on record as 49.5% (compound 0.01 μmol/l), 66.1% (compound 0.1 μmol/l), 95.5% (compound 1 μmol/l) and 93.7% (compound 10 μmol/l).

Regarding `COc1nn(C)cc1Nc1nn(C(C)C)c2cc(C(C)(C)O)ccc12` [Example 39, 2-{3-[(3-methoxy-1-methyl-1H-pyrazol-4-yl)amino]-1-(propan-2-yl)-1H-indazol-6-yl}propan-2-ol], the “RSL3-induced cell death inhibitory activity (%) at each compound concentration (μmol/l)” value reads like this: (compound 0.01 μmol/l) 58.0%; (compound 0.1 μmol/l) 66.4%; (compound 1 μmol/l) 83.0%; (compound 10 μmol/l) 93.2%.

Values taken from US12358879B2, “Heterocyclic compound” (Takeda Pharmaceutical Company Limited, priority 2019, dated 2025).
